From patent US11470844B2, “Vespidae wasp repellent” (KINP CO., LTD, priority 2015, dated 2022)

Assays:
Apis mellifera worker = conditions: in vivo
Description: The experiment involving a Apis mellifera worker which was sucking nectar from a flower of Abelia planted at a bank of Noda pond located at Fuseishi-cho, Takamatsu City, Kagawa Prefecture was conducted on Jul. 22 to 24, 2015.
With respect to the experimental condition, first, distilled water was sprayed once on the worker which was sucking nectar or moving from a flower to a flower by using a sprayer, and then the inventors observed the behavior for 30 seconds. Next, benzyl alcohol, 2-phenylethanol or benzyl acetate was sprayed once on the same worker by using the sprayer having the same mass and the same volume, and then the inventors observed the behavior up to 30 seconds. The test liquid was judged to be “effective” in the case where the Apis mellifera worker on which the test liquid was sprayed did different action than normal activity to visit a flower during the observation time.

Vespa mandarinia worker = test: Spray on Vespa mandarinia worker collecting sawthorn oak sap; assay type: in vivo, Vespa mandarinia japonica Radoszkowski; conditions: 10 workers; for behavior of workers after spraying: immediately started flapping, same time or a few seconds later; for Number of worker Effective / Number of worker No response: sprayed one time, observed up to 1 minute
Description: The experiment was conducted on a Vespa mandarinia japonica Radoszkowski worker which flew to a sawthorn oak tree bleeding sap and which collected the sap in Kagawa Prefecture Kinbuchi Forest Park in Takamatsu City Kagawa Prefecture from June to October, 2014 and from June to July, 2015.
Specifically, 100 mL of distilled water was enclosed in a plastic sprayer having a volume of 200 mL to be used as a control sprayer, and 100 mL of benzyl alcohol was enclosed in the same material and the same volume sprayer to be used as a test liquid sprayer. First, distilled water was sprayed one time to one Vespa mandarinia worker which was collecting sap at a sap bleeding part of a trunk of a sawthorn oak tree by using a control sprayer. […] Then, benzyl alcohol was sprayed one time by using a test liquid sprayer. Next, the workers were observed up to 1 minute. With respect to 2-phenylethanol, 3-phenylpropanol, 1-phenyl-2-prpanol and benzyl acetate, the spray test to a Vespa mandarinia worker collecting a sawthorn oak sap was conducted in the same condition.

Row | Number of worker Effective (Apis mellifera worker) | Number of worker No response (Apis mellifera worker) | Compound | behavior of workers after spraying (Vespa mandarinia worker) | Number of worker Effective (Vespa mandarinia worker) | Number of worker No response (Vespa mandarinia worker)
1 | 0/10 | 10/10 | CC(=O)OCc1ccccc1 [Benzyl acetate, benzyl acetate] | flew away from the sap bleeding part | 10/10 | 0/10
2 |  |  | CC(O)Cc1ccccc1 (centres unmarked) [1-Phenyl-2-propanol, 1-phenyl-2-propanol] | flew away from the sap bleeding part | 10/10 | 0/10
3 |  |  | OCCCc1ccccc1 [3-Phenylpropanol, 3-phenylpropanol] | flew away from the sap bleeding part | 10/10 | 0/10
